# In patent US6545152B1, “R-isomers of nonnucleoside inhibitors” (Parker Hughes Institute, priority 2000, dated 2003):
# Several values for one entry are separate records, joined by “and”; a condition that tells them apart may be missing. Equal entries are not always repeated. Where two headings read alike, the source gives them in different places.
# Legend:
# HIV-1 strain HTLVIIIB = assay: p24 antigen assay of HIV-1 replication in human PBMC; type: cell-based; conditions: read-out: IC50 HTLVIIIB
# Experimental: The HIV-1 strain HTLVIIIB (kindly provided by Dr. Neal T. Wetherall, VIROMED Laboratories, Inc.), was propagated in CCRF-CEM cells, and used in in vitro assays of the anti-HIV-1 activity of the synthesized compounds of the invention. Cell-free supernatants of HTLVIIIB-infected CCRF-CEM cells were harvested, dispensed into 1 ml aliquots, and frozen at −70° C.
# The incubated cells were then exposed to HIV-1 at a multiplicity of infection (MOI) of 0.1 during a one-hour adsorption period at 37° C. in a humidified 5% CO2 atmosphere. Subsequently, infected cells were cultured in 96-well microtiter plates (100 μl/well; 2×10^6 cells/ml) in the presence of test compounds, including appropriate controls. Aliquots of culture supernatants were removed from the wells on the seventh day after infection for p24 antigen assays. […] Ag.
# (§1) The applied p24 enzyme immunoassay (EIA) was the unmodified kinetic assay commercially available from Coulter Corporation/Immunotech, Inc. (Westbrooke, Me.). In the assay, a murine monoclonal antibody against HIV core protein is coated onto microwell strips. Antigen (HIV core protein) present in the test culture supernatant samples binds the antibody and the bound antibody-antigen complex is quantitated. Percent viral inhibition was calculated by comparing the p24 values from the test substance-treated infected cells with p24 values from untreated infected cells (i.e., virus controls).
# [1] = test system: multidrug resistant HIV-1 strain RT-MDR (V106A, 74V, 41L, 215Y); assay: microbe, parasite or virus in culture; type: cell-based
# [2] = test system: NNI-resistant HIV-1 strain A17 (Y181C); assay: microbe, parasite or virus in culture; type: cell-based
# Experimental: (§2) Normal human peripheral blood mononuclear cells (PBMNC) from HIV-negative donors were cultured 72 hours in RPMI 1640 supplemented with 20%(v/v) heat-inactivated fetal bovine serum (FBS), 3% interleukin-2, 2 mM L-glutamine, 25 mM HEPES, 2 g/L NaHCO3, 50 μg/ml gentamicin, and 4 μg/ml phytohemagglutinin prior to exposure to HIV-1. The incubated cells were then exposed to HIV-1 at a multiplicity of infection (MOI) of 0.1 during a one-hour adsorption period at 37° C. in a humidified 5% CO2 atmosphere. Subsequently, infected cells were cultured in 96-well microtiter plates (100 μl/well; 2×10^6 cells/ml) in the presence of test compounds, including appropriate controls. Aliquots of culture supernatants were removed from the wells on the seventh day after infection for p24 antigen assays. The methods used in the P24 assay were as previously described in Uckun, et al., Antimicrobial Agents and Chemotherapy, 1998, 42, 383; Zarling, et al., Nature, 1990, 347, 92-95; Erice, et al., Antimicrob. Ag. Chemother., 1993, 37, 835.
# as §1
# [3] = test system: HIV-1 strain A17 variant (Y181C plus K103N); assay: microbe, parasite or virus in culture; type: cell-based
# Experimental: as §2, §1
# [4] = target: T1, recombinant HIV-1 reverse transcriptase (rRT) (Human immunodeficiency virus type 1 group M subtype B, UniProt P04585); assay: Cell-free RT inhibition assay (Quan-T-RT, scintillation proximity); type: biochemical
# T1 construct: recombinant HIV-1 reverse transcriptase (rRT)
# Experimental: In addition, the activity of the test compounds to inhibit recombinant HIV-1 reverse transcriptase (rRT) activity was determined using the Quan-T-RT assay system (Amersham, Arlington Heights, Ill.), which utilizes the scintillation proximity assay principle. […] Data for both bioassays is reported as IC50 values.
# [5] = Human immunodeficiency virus 1, PBMC, human PBMC, p24
# [6] = Human immunodeficiency virus 1, H9, read-out: IC50 RT-MDR
# [7] = Human immunodeficiency virus 1, read-out: IC50 A17
# [8] = Human immunodeficiency virus 1, 168 h, read-out: IC50 A17 (second column; A17 variant)
# [9] = Human immunodeficiency virus 1, read-out: IC50 A17 (second column; A17 variant)
Structure (SMILES),IC50 (HIV-1 strain HTLVIIIB; [5]) [nM],"IC50 [1, 6] [nM]","IC50 [2, 7] [nM]","IC50 [3, 9] [nM]",melting point [°C],"IC50 (HIV-1 strain HTLVIIIB; human PBMC, p24) [nM]",IC50 [4],also measured
"CC(C)Nc1cccnc1N1CCN(C(=O)c2cc3cc(NS(C)(=O)=O)ccc3[nH]2)CC1 [Delavirdine, reference compound]",9,400,50000,> 100000,,,,"IC50 [3, 8]: > 100000 nM"
C[C@@H](NC(=S)Nc1ccc(Br)cn1)c1ccccc1 [PHI-511^R],,5,10,2700,170 to 172,10,,"IC50 (HIV-1 strain HTLVIIIB; human PBMC, p24, listed as PHI-511^S): > 1000 nM; times more active than delavirdine ([1]; RT-MDR): 80 times; times more active than nevirapine ([1]; RT-MDR): 1,000 times; times more active than trovirdine ([1]; RT-MDR): 4 times; times more active than HI-240 ([2]; A17): 20 times; times more active than delavirdine ([2]; A17): 5,000 times; times more active than nevirapine ([2]; A17): 10,000 times; times more active than trovirdine ([2]; A17): 50 times"
"Fc1ccccc1CCNC(=S)Nc1ccc(Br)cn1 [HI-240, reference compound]",,,,,,< 1,600 nM,"IC50 ([1]; H9 cells, read-out: IC50 RT-MDR): 5 nM; IC50 ([2]; Y181C mutation, read-out: IC50 A17): 200 nM; IC50 ([3]; Y181C plus K103N mutations, read-out: IC50 A17 (second column; A17 variant)): 41000 nM"
"S=C(NCCc1ccccn1)Nc1ccc(Br)cn1 [Trovirdine, reference compound]",,20,500,> 100000,,,,"IC50 (HIV-1 strain HTLVIIIB; Human immunodeficiency virus 1, PBMC): 7 nM; IC50 [3, 8]: > 100000 nM"
"C[C@@H](NC(=S)Nc1nccs1)C1CCCCC1 [PHI-513^R, N-[1-(1-(1R)-Cyclobexyl)ethyl]-N′-[2-(thiazolyl)]thiourea]",,5600,900,5800,118 to 119,1,13000 nM and > 100000 nM,"IC50 (HIV-1 strain HTLVIIIB; human PBMC, p24, listed as PHI-513^S): > 1000 nM"
"Cc1ccnc2c1NC(=O)c1cccnc1N2C1CC1 [Nevirapine, reference compound]",34,5000,> 100000,> 100000,,,,
"C[C@@H](NC(=S)Nc1ccc(Br)cn1)C1CCCCC1 [PHI-509^R, N-[1-(1-(1R)-Cyclohexylethyl)]-N-[2-(5-bromopyridyl)] thiourea]",,200,400,,176 to 177,1,,"IC50 (HIV-1 strain HTLVIIIB; human PBMC, p24, listed as PHI-509^S): > 1000 nM; IC50 [3, 8]: 10000 nM"
C[C@@H](NC(=S)Nc1ccc(Cl)cn1)c1ccccc1 [PHI-512^R],10,10,200,10200,185 to 187.5,,,
C[C@H](NC(=S)Nc1ccccn1)C1CCCCC1 [PHI-542],> 1000,,,,,,> 100000 nM,
C[C@@H](NC(=S)Nc1ccccn1)C1CCCCC1 [PHI-543],> 1000,,,,125 to 127,,> 100000 nM,
CC(NC(=S)Nc1ccc(Cl)cn1)C1CCCCC1 (stereo not shown) [PHI-510^R],,60,70,8200,,,,
